Data: ChEMBL document CHEMBL1201862, “PubChem BioAssay data set” (2004)
Each block holds one molecule with its values, some of them ahead of it. The source made the active and inactive calls.

Key:
[1] = target: T1, Probable nicotinate-nucleotide adenylyltransferase (Staphylococcus aureus (strain N315), UniProt P65502); assay type: functional, Staphylococcus aureus subsp. aureus N315;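 for IC50 Mean: confirmatory dose-response retesting of NadD inhibitor hits first found in an ultra-high-throughput screen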
[2] = target: T1, Probable nicotinate-nucleotide adenylyltransferase; assay type: functional, Staphylococcus aureus subsp. aureus N315; settings: read-out: IC50_Mean
Genome polyprotein = Genome polyprotein (dengue virus type 2, UniProt P29990); assay: Dengue-2 NS5 methyltransferase inhibitors, primary screen, biochemical, confirmation dose response (AID 588689); assay type: functional
[3] = target: T2, Low molecular weight phosphotyrosine protein phosphatase (Homo sapiens, UniProt P24666); assay type: functional; settings: read-out: IC50_Mean;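 note: Dose-response confirmation assay measuring inhibition of LMPTP enzyme activity by fluorescence intensity read-out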
T2 sequence (P24666 whole entry): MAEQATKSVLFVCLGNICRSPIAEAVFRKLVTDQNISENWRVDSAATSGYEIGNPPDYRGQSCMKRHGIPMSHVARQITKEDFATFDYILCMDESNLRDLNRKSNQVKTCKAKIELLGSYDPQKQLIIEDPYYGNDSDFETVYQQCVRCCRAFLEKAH

[4] = target: T3, Voltage-gated N-type calcium channel alpha-1B subunit/Amyloid beta A4 precursor protein-binding family A member 1 (Homo sapiens, UniProt Q00975+Q02410); assay type: protein assay
[5] = target: T3, Voltage-gated N-type calcium channel alpha-1B subunit/Amyloid beta A4 precursor protein-binding family A member 1; assay type: protein assay; remark: listed apart in the source
[6] = target: T4, Tyrosine-protein phosphatase non-receptor type 22 (Homo sapiens, UniProt Q9Y2R2); assay: LYP phosphatase inhibition for selectivity, dose response, selectivity assay for LMPTP inhibitor project, biochemical, fluorescence, LYP catalytic domain (AID 652006); assay type: functional; settings: read-out: IC50_Mean
T4 sequence (Q9Y2R2 whole entry): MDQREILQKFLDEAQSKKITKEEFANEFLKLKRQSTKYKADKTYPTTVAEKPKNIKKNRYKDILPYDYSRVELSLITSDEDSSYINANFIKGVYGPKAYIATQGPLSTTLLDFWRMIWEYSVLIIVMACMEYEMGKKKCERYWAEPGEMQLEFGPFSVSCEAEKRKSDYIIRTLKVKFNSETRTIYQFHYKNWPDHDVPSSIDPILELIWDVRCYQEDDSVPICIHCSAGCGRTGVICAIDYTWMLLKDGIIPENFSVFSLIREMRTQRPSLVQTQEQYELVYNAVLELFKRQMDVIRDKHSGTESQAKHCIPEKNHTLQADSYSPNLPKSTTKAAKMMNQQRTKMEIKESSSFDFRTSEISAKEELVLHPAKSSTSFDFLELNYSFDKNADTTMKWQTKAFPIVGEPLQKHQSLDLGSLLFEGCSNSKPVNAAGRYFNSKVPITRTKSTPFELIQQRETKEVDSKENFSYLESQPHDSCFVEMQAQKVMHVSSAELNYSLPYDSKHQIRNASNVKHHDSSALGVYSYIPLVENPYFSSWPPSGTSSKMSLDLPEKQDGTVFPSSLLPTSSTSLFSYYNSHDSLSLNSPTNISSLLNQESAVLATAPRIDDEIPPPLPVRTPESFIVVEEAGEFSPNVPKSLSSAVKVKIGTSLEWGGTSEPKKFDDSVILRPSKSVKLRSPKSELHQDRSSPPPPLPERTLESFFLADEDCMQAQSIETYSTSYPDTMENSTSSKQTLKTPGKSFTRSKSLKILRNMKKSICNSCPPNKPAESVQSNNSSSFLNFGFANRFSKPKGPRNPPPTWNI

[7] = target: T5, Carboxy-terminal domain RNA polymerase II polypeptide A small phosphatase 1 (Homo sapiens, UniProt Q9GZU7); assay: inhibitors of CTDSP1, concentration-response testing, biochemical assay, absorbance-based, actives from ultra-high-throughput screening (AID 540297); assay type: functional
T5 sequence (Q9GZU7 whole entry): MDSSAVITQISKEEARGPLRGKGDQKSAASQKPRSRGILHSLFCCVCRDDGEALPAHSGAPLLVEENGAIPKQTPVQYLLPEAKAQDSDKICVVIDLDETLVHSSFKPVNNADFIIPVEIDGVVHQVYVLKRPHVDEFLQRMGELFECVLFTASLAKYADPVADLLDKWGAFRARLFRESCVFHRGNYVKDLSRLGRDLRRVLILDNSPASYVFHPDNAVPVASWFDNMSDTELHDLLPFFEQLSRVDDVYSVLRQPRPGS

[8] = target: T6, Histone-lysine N-methyltransferase NSD2 (Homo sapiens, UniProt O96028); assay type: biochemical
T6 sequence (O96028 whole entry): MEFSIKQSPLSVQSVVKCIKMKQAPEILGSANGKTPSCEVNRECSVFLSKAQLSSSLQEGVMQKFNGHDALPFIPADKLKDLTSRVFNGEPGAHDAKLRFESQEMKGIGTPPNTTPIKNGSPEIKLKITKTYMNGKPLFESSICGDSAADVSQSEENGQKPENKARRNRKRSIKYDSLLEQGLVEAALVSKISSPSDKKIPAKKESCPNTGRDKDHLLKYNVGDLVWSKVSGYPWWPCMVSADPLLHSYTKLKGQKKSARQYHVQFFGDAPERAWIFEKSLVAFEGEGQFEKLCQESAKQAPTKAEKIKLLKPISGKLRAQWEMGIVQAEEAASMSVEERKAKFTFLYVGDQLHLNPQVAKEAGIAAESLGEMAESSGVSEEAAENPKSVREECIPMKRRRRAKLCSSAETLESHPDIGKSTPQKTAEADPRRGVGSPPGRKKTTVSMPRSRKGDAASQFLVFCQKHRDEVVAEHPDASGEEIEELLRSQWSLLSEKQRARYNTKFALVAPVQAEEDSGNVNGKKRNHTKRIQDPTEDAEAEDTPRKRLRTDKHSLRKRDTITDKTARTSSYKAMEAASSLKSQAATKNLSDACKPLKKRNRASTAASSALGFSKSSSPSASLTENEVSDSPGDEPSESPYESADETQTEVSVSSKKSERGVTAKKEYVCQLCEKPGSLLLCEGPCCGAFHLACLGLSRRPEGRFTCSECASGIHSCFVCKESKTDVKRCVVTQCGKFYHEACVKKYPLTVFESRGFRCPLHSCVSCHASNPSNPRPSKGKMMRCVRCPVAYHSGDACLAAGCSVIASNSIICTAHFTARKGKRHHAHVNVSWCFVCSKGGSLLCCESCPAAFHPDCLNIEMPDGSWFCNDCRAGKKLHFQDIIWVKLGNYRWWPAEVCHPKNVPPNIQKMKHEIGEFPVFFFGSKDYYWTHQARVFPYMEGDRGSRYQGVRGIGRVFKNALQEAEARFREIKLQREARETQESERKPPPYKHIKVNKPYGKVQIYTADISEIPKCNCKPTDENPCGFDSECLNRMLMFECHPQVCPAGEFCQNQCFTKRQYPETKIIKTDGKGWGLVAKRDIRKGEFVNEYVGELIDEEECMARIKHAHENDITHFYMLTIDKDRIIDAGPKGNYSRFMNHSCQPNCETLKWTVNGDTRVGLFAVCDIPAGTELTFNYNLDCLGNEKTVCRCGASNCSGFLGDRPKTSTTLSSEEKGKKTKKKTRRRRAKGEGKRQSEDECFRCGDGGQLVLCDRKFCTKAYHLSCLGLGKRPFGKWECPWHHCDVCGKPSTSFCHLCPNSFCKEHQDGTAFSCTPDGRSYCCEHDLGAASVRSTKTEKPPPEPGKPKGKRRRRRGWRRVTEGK

[9] = target: T7, Rac GTPase-activating protein 1 (Homo sapiens, UniProt Q9H0H5); assay: MgcRacGAP GTPase-activating activity inhibitors, confirmation, biochemical, ADP Hunter fluorescence, primary and confirmatory (AID 624330); assay type: functional
T7 sequence (Q9H0H5 whole entry): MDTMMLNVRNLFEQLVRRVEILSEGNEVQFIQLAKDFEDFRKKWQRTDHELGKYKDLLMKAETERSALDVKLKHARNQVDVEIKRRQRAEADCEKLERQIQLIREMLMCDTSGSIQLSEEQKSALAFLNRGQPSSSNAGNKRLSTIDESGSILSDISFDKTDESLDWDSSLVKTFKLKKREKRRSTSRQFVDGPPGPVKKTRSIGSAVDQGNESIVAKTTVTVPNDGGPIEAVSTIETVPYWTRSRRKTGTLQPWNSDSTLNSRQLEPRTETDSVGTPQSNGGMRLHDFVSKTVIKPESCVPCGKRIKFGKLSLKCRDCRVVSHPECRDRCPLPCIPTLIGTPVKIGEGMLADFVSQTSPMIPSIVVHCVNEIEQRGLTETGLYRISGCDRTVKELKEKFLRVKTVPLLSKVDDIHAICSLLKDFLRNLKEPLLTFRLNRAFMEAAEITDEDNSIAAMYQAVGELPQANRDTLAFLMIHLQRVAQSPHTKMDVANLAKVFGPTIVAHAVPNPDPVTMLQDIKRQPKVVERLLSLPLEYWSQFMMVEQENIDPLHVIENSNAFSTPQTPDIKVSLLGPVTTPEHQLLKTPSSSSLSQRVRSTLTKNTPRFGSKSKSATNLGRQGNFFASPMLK

[10] = target: Hepatocyte nuclear factor 4-alpha (Homo sapiens, UniProt P41235); assay type: functional, cell-based;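 note: biochemical luminescence-based dose-response counterscreen measuring inhibition of HNF4 dimerization, run alongside a screen for blockers of ABHD5–perilipin-5 interaction; split luciferase complementation of HNF4 fusion proteins in cell lysate measuring dimerization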
[11] = target: T8, DNA repair protein RAD52 homolog (Homo sapiens, UniProt P43351); assay type: functional, biochemical
T8 sequence (P43351 whole entry): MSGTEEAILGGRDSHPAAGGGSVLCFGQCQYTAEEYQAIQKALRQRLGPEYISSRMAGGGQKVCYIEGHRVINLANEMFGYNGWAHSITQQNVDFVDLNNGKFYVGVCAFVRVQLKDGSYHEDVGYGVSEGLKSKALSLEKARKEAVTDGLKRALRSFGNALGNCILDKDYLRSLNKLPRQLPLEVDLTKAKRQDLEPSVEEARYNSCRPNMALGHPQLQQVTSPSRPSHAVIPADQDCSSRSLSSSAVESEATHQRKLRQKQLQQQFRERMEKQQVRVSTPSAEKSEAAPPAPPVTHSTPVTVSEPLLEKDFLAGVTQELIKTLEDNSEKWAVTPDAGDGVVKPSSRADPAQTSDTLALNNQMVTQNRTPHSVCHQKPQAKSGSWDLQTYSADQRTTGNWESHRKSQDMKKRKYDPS

[12] = HeLa cell cytotoxicity, dose response, cytotoxicity control for MgcRacGAP inhibitor project (AID 624300); assay type: functional
[13] = MDA-MB-231 cell growth inhibition, dose response, cytotoxicity control for RAD54 inhibitor project, CellTiter-Glo luminescence, cherry-pick (AID 651692); assay type: functional, cell-based
[14] = target: T9, DNA repair and recombination protein RAD54-like (Homo sapiens, UniProt Q92698); assay: inhibitors of human RAD54 branch migration, confirmation, biochemical, fluorescence, cherry-picked samples, dose series (AID 651657); assay type: functional
T9 sequence (Q92698 whole entry): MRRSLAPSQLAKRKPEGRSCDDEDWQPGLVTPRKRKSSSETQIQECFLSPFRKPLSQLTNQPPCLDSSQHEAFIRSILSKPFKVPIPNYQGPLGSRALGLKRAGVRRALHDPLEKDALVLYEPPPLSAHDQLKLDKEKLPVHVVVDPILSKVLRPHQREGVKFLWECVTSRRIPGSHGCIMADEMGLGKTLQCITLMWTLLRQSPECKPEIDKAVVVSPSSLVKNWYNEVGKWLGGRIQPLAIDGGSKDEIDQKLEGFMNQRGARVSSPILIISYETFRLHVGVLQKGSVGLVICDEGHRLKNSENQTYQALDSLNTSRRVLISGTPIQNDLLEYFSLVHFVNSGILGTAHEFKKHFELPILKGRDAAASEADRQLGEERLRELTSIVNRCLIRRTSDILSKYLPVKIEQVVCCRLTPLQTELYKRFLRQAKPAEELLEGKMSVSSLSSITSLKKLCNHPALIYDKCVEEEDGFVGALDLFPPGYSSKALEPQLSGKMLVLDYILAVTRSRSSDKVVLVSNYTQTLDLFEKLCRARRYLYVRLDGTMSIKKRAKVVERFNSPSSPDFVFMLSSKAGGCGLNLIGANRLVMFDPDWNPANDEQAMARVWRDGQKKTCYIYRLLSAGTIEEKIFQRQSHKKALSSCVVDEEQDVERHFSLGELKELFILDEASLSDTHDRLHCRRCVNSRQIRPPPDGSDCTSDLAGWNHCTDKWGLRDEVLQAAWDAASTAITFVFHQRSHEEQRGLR

[15] = target: T10, ATP-dependent translocase ABCB1 (Homo sapiens, UniProt P08183); assay: ABCG2 efflux pump inhibitor potency, dose response, Ig-MXP3 cells, JC-1, flow cytometry, set 2 (AID 504566); assay type: functional; settings: read-out: EC50_MICROM_;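 note: flow cytometry median green fluorescence of retained JC-1 dye; potency of efflux pump inhibition measured as rising substrate retention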
[16] = target: T10, ATP-dependent translocase ABCB1; assay: ABCB1 efflux inhibitor potency, dose response, Jurkat-DNR cells, JC-1, flow cytometry, set 2 (AID 504569); assay type: functional; settings: read-out: EC50_MICROM_;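 note: potency of pump inhibitors that raise cellular JC-1 green fluorescence up to the nicardipine level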

T10 sequence (P08183 whole entry): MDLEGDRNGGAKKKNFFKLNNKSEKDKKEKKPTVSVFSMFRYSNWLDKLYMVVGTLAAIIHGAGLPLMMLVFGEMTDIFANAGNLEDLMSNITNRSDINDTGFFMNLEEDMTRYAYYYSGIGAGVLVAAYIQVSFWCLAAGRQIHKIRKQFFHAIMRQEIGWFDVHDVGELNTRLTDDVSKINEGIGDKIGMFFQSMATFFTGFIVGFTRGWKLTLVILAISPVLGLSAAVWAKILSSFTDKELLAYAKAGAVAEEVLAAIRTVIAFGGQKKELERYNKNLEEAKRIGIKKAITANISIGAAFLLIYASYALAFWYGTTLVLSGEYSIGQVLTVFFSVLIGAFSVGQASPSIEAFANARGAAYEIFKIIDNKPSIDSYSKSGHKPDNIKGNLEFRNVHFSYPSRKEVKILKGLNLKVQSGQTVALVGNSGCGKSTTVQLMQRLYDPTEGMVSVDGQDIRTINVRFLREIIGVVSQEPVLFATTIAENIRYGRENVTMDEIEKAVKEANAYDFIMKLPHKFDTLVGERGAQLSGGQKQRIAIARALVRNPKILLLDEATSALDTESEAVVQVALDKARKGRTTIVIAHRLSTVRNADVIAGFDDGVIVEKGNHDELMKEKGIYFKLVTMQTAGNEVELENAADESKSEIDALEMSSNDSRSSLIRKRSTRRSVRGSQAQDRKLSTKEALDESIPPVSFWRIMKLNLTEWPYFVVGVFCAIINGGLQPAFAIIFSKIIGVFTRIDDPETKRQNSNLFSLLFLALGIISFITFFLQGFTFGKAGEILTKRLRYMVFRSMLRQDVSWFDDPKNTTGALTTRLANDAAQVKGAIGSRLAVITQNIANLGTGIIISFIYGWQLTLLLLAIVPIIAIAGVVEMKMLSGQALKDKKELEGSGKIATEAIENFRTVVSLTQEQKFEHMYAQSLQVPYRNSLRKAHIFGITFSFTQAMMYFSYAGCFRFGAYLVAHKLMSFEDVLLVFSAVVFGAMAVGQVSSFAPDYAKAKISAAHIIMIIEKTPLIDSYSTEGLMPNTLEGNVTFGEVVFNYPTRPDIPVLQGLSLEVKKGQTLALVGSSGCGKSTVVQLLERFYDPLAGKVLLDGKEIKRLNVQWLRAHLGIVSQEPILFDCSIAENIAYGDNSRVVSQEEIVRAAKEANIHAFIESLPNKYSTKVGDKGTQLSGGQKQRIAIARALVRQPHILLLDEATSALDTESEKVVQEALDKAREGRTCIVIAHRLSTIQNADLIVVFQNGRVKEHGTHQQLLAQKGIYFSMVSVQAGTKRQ
T3 sequence (Q00975 whole entry): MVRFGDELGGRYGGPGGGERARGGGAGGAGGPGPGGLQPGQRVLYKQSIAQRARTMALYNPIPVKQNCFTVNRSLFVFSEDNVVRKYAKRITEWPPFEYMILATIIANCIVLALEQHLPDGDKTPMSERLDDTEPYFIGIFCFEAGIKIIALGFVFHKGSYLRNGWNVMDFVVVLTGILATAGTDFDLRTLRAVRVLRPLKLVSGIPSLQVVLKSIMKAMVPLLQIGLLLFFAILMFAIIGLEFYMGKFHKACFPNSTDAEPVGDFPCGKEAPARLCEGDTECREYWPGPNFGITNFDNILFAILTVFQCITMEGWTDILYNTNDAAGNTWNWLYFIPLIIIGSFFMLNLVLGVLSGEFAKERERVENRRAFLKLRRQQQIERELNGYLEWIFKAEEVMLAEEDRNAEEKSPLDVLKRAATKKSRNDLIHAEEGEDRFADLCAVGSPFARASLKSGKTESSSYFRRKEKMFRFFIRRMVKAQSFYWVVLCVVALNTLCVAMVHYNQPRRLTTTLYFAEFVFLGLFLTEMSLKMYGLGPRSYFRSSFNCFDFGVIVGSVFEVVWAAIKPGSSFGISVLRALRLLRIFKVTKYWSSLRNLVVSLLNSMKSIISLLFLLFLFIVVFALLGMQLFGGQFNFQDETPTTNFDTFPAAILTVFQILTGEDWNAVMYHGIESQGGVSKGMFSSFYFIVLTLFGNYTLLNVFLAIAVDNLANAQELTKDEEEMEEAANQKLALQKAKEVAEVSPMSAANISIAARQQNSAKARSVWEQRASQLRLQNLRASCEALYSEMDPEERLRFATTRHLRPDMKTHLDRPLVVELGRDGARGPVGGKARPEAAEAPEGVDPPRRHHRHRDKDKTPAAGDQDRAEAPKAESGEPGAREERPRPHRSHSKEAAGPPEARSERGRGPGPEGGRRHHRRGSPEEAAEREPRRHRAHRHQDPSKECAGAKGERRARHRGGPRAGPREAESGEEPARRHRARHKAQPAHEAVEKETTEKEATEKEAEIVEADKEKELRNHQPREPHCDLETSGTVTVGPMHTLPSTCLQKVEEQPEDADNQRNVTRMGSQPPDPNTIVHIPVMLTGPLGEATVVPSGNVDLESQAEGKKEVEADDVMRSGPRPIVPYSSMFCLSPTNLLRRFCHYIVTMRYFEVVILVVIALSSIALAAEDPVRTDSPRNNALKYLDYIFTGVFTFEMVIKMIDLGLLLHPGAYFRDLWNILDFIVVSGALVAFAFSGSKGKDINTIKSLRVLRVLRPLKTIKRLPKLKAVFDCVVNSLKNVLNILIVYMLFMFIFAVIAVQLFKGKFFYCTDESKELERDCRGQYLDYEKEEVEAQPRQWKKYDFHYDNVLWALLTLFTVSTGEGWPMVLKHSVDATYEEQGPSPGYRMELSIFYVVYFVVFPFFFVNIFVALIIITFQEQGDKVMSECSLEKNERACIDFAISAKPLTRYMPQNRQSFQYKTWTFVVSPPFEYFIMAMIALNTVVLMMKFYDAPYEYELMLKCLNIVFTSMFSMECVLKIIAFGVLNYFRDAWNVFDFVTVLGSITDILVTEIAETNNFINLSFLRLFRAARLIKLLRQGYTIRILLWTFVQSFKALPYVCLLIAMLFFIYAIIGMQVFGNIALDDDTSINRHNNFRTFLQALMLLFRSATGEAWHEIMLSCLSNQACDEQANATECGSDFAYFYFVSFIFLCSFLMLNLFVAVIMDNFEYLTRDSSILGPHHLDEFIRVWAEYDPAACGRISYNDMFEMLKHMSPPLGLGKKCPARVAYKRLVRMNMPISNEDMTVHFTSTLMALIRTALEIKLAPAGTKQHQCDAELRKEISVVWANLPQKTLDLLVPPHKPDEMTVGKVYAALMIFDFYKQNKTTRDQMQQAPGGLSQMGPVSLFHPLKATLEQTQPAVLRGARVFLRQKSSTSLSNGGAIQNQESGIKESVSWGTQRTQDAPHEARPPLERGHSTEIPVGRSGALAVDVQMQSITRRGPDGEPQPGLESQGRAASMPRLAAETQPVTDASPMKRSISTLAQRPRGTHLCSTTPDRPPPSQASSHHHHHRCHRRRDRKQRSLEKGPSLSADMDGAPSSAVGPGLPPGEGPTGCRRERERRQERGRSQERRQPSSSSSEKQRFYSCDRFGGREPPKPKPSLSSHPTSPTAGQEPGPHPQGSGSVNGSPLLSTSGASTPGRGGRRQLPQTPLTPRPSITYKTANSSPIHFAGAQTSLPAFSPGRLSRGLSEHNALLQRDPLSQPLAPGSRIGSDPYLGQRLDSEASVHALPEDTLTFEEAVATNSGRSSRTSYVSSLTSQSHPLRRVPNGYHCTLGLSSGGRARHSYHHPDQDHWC
T3 sequence (Q02410 whole entry): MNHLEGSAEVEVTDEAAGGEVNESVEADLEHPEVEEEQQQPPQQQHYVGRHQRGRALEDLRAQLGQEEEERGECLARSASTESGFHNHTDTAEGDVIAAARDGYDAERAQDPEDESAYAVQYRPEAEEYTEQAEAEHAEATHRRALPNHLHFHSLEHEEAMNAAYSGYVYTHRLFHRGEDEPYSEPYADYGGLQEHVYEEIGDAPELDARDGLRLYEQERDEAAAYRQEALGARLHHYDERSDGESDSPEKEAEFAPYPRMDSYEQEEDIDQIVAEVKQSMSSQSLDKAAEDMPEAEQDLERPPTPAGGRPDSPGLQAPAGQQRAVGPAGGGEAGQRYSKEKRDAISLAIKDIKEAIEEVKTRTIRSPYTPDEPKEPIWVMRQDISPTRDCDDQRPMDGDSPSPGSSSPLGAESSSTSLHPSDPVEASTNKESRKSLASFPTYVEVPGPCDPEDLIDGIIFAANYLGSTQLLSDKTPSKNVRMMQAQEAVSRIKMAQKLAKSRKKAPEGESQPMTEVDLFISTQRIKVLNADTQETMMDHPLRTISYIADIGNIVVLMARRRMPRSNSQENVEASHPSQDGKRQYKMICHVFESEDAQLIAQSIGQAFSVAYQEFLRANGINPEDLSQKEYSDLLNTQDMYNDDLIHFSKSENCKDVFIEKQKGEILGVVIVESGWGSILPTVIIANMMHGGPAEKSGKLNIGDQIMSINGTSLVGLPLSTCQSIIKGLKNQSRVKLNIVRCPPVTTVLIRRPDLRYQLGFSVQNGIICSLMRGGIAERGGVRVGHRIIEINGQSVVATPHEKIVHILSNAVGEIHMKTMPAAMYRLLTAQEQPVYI
Sequence of Hepatocyte nuclear factor 4-alpha (P41235 whole entry, the tested form may be a part): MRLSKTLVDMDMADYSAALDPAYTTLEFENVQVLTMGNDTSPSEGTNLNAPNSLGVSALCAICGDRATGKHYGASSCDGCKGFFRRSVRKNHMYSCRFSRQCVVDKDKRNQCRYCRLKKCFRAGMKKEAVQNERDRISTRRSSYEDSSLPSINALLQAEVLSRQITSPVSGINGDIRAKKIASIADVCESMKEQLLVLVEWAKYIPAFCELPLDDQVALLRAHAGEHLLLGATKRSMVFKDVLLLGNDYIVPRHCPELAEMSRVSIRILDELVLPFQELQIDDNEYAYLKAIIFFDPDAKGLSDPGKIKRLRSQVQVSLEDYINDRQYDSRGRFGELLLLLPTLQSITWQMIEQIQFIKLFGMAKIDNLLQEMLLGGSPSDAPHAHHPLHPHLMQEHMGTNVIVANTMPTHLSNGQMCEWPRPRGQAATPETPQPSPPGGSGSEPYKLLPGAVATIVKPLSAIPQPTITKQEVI

Compound: Cc1ccc(NS(=O)(=O)c2ccc(N/N=C/c3ccccc3OCC(=O)O)c([N+](=O)[O-])c2)c(C)c1
IC50 [1]: 6.32 µM (active)
IC50 [2]: 23.3 µM (active)
IC50 (Genome polyprotein): 43.9 µM (active)

IC50 [3]: 20.7 µM (inactive)
IC50 [4]: > 50 µM (inactive)
IC50 [5]: 3.86 µM (active)
IC50 [6]: 56.1 µM (inactive)
IC50 [7]: 4.18 µM (active)
Compound: NS(=O)(=O)c1ccc(CNC(=O)Cc2cccs2)cc1

Compound: COc1cc(C)c2sc3ccccc3c(=O)c2c1NCCN(C)C
AC50 [8]: 5.29 µM (active)
IC50 [9]: 71.4 µM (active)
IC50 [10]: 36.1 µM (inactive)
AC50 [11]: 1.07 µM (active)
CC50 [12]: 53.3 µM (active)
AC50 [13]: 33.6 µM (active)
AC50 [14]: 2.7 µM (active)

EC50 [15]: 2.97 µM (active)
EC50 [16]: 4.13 µM (active)
Compound: COc1ccccc1C(=O)N1CCN(c2cc(-c3ccccc3)nc3cc(-c4cccc(Cl)c4)nn23)CC1
